According to ChEMBL document CHEMBL1201862, “PubChem BioAssay data set” (2004):
Activity calls are given as the source filed them.

Tests used:
[1] = target: DNA damage-inducible transcript 3 protein (Mus musculus, UniProt P35639); format: functional, Cricetulus griseus
[2] = target: Alkaline phosphatase, placental type (Homo sapiens, UniProt P05187); assay: PLAP enzyme inhibitors, confirmation, biochemical, luminescence (AID 1512); format: functional
[3] = target: T1, Alkaline phosphatase, tissue-nonspecific isozyme (Homo sapiens, UniProt P05186); assay: human TNAP enzyme inhibitors, SAR follow-up, biochemical, luminescent, dose response (AID 1056)
T1 sequence (P05186 whole entry): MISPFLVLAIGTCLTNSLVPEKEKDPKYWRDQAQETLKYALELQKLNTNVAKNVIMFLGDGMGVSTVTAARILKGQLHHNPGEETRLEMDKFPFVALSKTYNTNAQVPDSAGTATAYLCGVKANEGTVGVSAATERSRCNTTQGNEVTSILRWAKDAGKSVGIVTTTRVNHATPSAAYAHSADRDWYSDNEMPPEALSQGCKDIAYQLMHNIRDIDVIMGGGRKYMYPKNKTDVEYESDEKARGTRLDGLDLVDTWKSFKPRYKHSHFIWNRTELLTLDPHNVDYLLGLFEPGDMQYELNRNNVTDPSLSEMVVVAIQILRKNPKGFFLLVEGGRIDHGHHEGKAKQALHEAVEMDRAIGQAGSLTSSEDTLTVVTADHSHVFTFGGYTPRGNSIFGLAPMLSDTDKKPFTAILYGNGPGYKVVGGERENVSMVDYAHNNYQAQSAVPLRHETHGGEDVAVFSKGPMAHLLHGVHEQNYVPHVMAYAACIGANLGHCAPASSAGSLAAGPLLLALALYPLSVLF

[4] = inhibitors of SNCA 5'UTR-driven reporter translation, confirmation, H4 neuroglioma cells, luminescence (AID 1988); format: functional, cell-based
cells = format: functional
[5] = inhibitors of firefly luciferase expression or activity, dose response, H4 neuroglioma cells, luminescence (AID 1990); format: functional, cell-based
[6] = Luminescence Cell-Based Dose Response HTS to Identify Inhibitors of 5'UTR Stem-Loop Driven Prion Protein mRNA Translation in H4 Neuroglioblastoma Cells. [Related pubchem assays: 1827 (Project Summary), 1813 (Primary HTS)]; format: functional
[7] = HepG2 cell cytotoxicity, dose response, cytotoxicity control for Shn3 inhibitor project, CellTiter-Glo, cherry-picked (AID 624134); format: functional, cell-based
[8] = control 3'UTR Renilla luciferase suppression, dose response, counter-screen for Shn3 inhibitor project, cell-based, Clone20-Shn3RL, cherry-picked (AID 624133); format: functional
[9] = THP-1 cell cytotoxicity, dose response, cytotoxicity control for non-replicating M. tuberculosis project (AID 489025); format: functional
[10] = Shn3 3'UTR reporter inhibitors, dose response, cell-based, Clone20 osteoblasts, firefly luciferase, cherry-picked (AID 624132); format: functional;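 further: firefly luciferase luminescence from reporter carrying the Shn3 3'UTR in osteoblasts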
[11] = HepG2 cell cytotoxicity, dose response, cytotoxicity control for non-replicating M. tuberculosis project (AID 489018); format: functional; settings: Mycobacterium tuberculosis
[12] = Vero E6 cell cytotoxicity, dose response, cytotoxicity control for non-replicating M. tuberculosis project, secondary assay (AID 492998); format: functional, VeroE6; settings: Vero C1008
Beta-galactosidase [13] = target: T2, Beta-galactosidase (Escherichia coli, UniProt Q8VNN2); format: functional
[14] = C. albicans growth with fluconazole, confirmation, fluorescence, retest (AID 2467); format: functional, cell-based
Streptococcus = assay: Group A Streptococcus viability loss, dose response, counter-screen for streptokinase expression inhibitor project, luminescence, BacTiterGlo (AID 1915); format: functional, organism-based;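 further: potency for reduction of bacterial viability or growth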
[15] = target: T3, Delta-type opioid receptor (Homo sapiens, UniProt P41143); assay: HTS Image-Based Screen for Agonists of the DOR Receptor. [Related pubchem assays (depositor defined):AID1777, AID1786, AID2133]; format: functional
Beta-galactosidase [16] = target: T2, Beta-galactosidase; assay: PubChem AID 485352; format: functional
[17] = inhibitors of intracellular T. cruzi replication, confirmation, NIH3T3 host cells, beta-gal luminescence (AID 2044); format: functional, cell-based;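 further: intracellular parasites grown in NIH/3T3 mouse fibroblasts as host cells; luminescent beta-galactosidase reporter signal from transgenic T. cruzi replicating inside host cells; inhibitors lower the luminescence signal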
INS1 = assay: beta cell apoptosis inhibitors, cytokine rescue, dose response, luminescence, retest (AID 449756); format: functional, cell-based; settings: Rattus norvegicus;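 further: cell death triggered by IL-1 beta plus TNF-alpha plus IFN-gamma mixture; protective hits raise ATP signal compared with cytokine alone wells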
[18] = system: Streptococcus sp. 'group A'; assay: growth inhibition of control SK(-) GAS strain, dose response, counter-screen for streptokinase expression inhibitor project, luminescence, kanamycin, BacTiterGlo, confirmation (AID 1900); format: functional, organism-based
[19] = target: T4, Kappa-type opioid receptor (Homo sapiens, UniProt P41145); format: functional
Nonstructural protein 1 = Nonstructural protein 1 (Influenza A virus, UniProt Q194T2); format: functional, Influenza A virus (A/California/07/2009(H1N1))
[20] = target: T4, Kappa-type opioid receptor; format: functional; remark: listed apart in the source
[21] = NIH-3T3 fibroblast cytotoxicity, dose response, cytotoxicity control, cell-based, fluorescence, Alamar Blue, secondary assay (AID 2327); format: functional;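 further: NIH-3T3 mouse fibroblasts cultured with fluconazole at 8 µg/mL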
Mu-type opioid receptor = Mu-type opioid receptor (Homo sapiens, UniProt P35372); assay: HTS Image-Based Screen for Agonists of the MOR Receptor. [Related pubchem assays (depositor defined):AID1777, AID1785, AID1786, AID2133]; format: functional;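 further: imaging of beta-arrestin GFP recruitment into spots after receptor activation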
[22] = target: T5, Type-1 angiotensin II receptor (Homo sapiens, UniProt P30556); assay: AT1 receptor antagonists, dose response, selectivity assay for APJ receptor antagonist project, cell-based, uHTS hits (AID 463214); format: functional;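 further: antagonist potency against angiotensin II stimulated AT1 response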
T5 sequence (P30556 whole entry): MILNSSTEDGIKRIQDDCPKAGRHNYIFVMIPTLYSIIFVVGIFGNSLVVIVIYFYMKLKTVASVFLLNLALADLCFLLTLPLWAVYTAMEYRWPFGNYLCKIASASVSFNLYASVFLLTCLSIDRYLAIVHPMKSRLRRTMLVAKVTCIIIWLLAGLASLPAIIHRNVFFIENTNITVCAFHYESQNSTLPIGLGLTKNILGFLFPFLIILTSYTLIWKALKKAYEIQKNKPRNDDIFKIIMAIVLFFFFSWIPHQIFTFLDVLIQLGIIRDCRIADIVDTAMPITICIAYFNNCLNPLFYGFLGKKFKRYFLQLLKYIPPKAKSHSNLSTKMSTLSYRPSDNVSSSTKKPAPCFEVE

Vero = assay: cells; format: functional; settings: Chlorocebus sabaeus
[23] = target: T6, Heat shock factor protein 1 (Mus musculus, UniProt P38532); assay: HSF1 potentiators in luciferase reporter cells, confirmation, cell-based, NIH3T3, luminescence, dose retest (AID 435004); format: functional;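 further: stress induced by proteasome inhibitor MG132 added 30 min after compound; luciferase reporter driven by HSF1 response element in NIH3T3 cells; actives raise luminescence as potentiators of the MG132 stress response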
T6 sequence (P38532 whole entry): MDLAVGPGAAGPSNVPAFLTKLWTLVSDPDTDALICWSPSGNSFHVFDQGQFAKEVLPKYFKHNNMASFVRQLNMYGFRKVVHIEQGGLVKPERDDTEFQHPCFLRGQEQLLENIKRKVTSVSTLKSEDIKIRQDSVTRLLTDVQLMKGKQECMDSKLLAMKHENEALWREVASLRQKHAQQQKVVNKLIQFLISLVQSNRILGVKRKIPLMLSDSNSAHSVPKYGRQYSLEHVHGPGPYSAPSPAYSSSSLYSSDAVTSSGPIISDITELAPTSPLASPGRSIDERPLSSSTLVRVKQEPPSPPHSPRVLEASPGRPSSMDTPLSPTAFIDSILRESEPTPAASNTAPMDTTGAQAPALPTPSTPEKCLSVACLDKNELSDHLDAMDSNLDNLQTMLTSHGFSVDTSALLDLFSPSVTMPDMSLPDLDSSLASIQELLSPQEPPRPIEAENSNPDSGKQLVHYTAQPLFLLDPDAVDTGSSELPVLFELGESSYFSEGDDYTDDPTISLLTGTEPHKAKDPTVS

Streptokinase A = target: T7, Streptokinase A (Streptococcus pyogenes serotype M1, UniProt P10520); assay: S. pyogenes streptokinase expression inhibitors, potency, dose response, plasminogen activation absorbance, OD405 (AID 1914); format: functional, Streptococcus pyogenes M1 GAS;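 further: secreted streptokinase activity via plasminogen activation per viability signal from cell pellet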
T7 sequence (P10520 whole entry): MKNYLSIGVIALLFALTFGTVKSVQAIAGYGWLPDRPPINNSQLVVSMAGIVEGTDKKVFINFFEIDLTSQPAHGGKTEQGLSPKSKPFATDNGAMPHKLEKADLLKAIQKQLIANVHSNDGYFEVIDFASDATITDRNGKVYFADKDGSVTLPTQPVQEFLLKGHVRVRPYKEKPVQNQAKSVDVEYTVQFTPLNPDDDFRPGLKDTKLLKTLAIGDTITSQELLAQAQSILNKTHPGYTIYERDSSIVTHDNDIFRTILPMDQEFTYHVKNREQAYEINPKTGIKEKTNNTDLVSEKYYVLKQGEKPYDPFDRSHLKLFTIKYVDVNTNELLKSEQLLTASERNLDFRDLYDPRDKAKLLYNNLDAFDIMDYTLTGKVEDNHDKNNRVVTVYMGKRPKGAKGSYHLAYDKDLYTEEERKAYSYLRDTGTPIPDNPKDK

[24] = target: T3, Delta-type opioid receptor; assay: HTS Image-Based Screen for Antagonists of the DOR Receptor. [Related pubchem assays (depositor defined):AID1777, AID1785, AID1786, AID2133]; format: functional
[25] = target: Heat shock protein HSP 90-alpha (Homo sapiens, UniProt P07900); format: functional, organism-based
[26] = cytotoxicity toward NIH3T3 fibroblasts, dose response, counter-screen, cell-based, ATP luminescence, mouse fibroblasts (AID 2010); format: functional;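 further: cells exposed to compound for about 90 hours before reading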
[27] = target: G-protein coupled receptor 55 (Homo sapiens, UniProt Q9Y2T6); assay: GPR55 antagonists blocking LPI-driven arrestin recruitment, primary screen, imaging, U2OS, beta-arrestin-GFP, LPI agonist (AID 2013); format: functional;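 further: antagonist potency measured as reduced agonist-driven arrestin aggregation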
Chain of G-protein coupled receptor 55 (Q9Y2T6 whole entry): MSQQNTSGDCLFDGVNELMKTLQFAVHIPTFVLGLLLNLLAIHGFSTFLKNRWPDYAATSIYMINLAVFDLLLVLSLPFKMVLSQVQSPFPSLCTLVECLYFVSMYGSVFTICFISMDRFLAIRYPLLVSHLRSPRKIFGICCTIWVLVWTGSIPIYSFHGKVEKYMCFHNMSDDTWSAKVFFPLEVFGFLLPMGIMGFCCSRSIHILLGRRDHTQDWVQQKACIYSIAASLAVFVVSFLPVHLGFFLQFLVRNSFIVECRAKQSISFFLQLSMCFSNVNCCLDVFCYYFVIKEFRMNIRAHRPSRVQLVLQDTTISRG

T2 sequence (Q8VNN2 whole entry): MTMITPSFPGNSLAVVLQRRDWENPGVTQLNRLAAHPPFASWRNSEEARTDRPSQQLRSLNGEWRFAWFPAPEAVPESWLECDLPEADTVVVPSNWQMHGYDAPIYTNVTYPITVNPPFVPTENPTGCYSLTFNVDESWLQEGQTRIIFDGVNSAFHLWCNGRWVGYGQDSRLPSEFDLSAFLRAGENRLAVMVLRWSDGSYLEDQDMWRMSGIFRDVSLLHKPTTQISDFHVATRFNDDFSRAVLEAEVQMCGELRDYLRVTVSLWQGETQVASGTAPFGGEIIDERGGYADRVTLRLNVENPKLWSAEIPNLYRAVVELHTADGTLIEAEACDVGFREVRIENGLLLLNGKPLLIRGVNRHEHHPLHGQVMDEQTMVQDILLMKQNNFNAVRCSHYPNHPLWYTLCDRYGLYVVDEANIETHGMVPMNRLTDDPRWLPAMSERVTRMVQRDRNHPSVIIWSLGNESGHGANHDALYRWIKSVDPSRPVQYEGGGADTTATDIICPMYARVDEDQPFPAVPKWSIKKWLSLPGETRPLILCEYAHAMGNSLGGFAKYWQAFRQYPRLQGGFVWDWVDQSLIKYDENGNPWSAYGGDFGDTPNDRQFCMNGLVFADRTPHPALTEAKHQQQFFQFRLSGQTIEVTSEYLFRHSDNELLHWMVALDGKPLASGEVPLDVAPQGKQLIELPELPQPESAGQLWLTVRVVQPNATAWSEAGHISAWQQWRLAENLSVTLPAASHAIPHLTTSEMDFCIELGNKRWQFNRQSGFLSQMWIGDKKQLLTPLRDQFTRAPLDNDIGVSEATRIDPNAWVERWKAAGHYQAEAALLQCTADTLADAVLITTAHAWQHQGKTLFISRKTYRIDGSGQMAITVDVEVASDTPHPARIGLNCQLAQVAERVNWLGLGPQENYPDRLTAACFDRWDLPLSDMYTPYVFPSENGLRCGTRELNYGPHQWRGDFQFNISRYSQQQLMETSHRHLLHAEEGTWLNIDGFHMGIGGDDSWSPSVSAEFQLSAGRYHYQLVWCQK
T3 sequence (P41143 whole entry): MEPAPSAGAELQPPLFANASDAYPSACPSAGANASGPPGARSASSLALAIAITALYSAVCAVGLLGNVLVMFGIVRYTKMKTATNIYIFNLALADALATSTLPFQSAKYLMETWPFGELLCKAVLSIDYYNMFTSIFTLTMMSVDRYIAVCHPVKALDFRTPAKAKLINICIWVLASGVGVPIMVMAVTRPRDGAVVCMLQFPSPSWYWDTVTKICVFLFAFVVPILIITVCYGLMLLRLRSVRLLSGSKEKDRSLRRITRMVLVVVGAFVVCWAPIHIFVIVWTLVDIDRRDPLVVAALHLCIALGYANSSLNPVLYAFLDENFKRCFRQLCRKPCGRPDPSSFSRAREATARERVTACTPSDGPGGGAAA
T4 sequence (P41145 whole entry): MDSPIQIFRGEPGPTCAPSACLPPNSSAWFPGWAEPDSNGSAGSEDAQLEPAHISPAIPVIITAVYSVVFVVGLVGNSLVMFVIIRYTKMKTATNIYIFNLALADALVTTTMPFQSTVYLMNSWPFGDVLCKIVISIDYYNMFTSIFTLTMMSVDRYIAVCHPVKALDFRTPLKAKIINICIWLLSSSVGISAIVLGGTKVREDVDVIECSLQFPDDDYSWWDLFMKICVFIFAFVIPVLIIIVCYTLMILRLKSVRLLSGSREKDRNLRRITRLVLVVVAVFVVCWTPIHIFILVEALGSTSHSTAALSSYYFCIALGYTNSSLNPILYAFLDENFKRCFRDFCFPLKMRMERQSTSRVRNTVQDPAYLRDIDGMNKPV
Chain of DNA damage-inducible transcript 3 protein (P35639 whole entry): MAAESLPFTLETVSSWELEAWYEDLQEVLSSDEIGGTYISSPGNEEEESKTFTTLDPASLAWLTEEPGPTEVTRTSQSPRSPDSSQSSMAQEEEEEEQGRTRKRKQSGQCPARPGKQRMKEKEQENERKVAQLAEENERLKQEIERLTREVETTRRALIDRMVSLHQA
Chain of Nonstructural protein 1 (Q194T2 whole entry): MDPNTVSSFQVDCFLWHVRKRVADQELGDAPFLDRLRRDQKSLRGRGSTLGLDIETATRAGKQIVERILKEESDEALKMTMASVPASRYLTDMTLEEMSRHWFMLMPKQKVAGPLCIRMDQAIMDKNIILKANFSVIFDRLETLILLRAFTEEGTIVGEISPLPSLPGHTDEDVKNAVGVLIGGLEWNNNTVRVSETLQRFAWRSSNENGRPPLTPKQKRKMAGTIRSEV
Chain of Mu-type opioid receptor (P35372 whole entry): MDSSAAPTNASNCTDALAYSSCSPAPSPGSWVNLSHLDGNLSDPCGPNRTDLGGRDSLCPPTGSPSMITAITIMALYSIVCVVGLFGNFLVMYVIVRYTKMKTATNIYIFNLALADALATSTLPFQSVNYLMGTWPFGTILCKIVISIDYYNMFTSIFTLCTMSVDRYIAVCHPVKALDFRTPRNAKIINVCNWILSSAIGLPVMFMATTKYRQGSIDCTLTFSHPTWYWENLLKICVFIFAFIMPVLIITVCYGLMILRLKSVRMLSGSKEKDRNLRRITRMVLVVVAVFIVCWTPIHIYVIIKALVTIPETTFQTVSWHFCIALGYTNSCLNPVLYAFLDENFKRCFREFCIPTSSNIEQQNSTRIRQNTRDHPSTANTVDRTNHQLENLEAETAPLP
Chain of Alkaline phosphatase, placental type (P05187 whole entry): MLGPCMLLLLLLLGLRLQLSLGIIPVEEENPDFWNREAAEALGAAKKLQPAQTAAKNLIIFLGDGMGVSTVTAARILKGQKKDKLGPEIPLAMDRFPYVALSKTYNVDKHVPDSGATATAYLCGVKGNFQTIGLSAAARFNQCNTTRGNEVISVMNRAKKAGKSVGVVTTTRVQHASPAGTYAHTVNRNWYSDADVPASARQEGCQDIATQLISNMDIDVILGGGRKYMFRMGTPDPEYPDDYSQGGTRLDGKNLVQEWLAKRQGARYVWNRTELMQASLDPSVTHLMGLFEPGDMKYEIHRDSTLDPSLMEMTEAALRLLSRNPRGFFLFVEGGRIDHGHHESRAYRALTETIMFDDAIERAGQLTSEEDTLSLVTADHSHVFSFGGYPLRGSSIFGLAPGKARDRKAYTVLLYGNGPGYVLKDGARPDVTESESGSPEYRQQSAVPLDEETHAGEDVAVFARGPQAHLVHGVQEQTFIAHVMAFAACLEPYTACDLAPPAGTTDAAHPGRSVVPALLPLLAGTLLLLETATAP

O=C(NNc1ccccc1[N+](=O)[O-])Nc1ccc(Cl)c(Cl)c1
10 µM: Absolute IC50 (CHOP) [1]

CCn1c(SCC(=O)c2ccc(O)c(O)c2)nnc1-c1ccc(Cl)cc1
inactive: IC50 [3] > 100 µM
active: IC50 [2] 8.76 µM

CCOc1cccc(CNCCc2c(C)[nH]c3ccc(OC(F)(F)F)cc23)c1O
> 120 µM (not active): EC50 [5]
active: EC50 [4] 11.2 µM | IC50 (cells) 10.5 µM | EC50 [6] 17.2 µM | AC50 [7] 8.24 µM | AC50 [8] 18.1 µM | CC50 [9] 6.17 µM | AC50 [10] 0.611 µM | CC50 [11] 5.75 µM | CC50 [12] 9.94 µM

Oc1cc(CSc2ccc(Cl)cc2)nc(-c2ccccn2)n1
active: EC50 [14] 0.1 µM | EC50 (Streptococcus) 6.82 µM | EC50 [17] 0.549 µM | AC50 (INS1) 2.74 µM | EC50 [18] 0.489 µM | IC50 [19] 4.86 µM | IC50 (Nonstructural protein 1) 14.4 µM | EC50 [21] 9.84 µM | IC50 [22] 13 µM | CC50 (Vero) 5.82 µM | EC50 [23] 5.93 µM | AC50 [25] 23.3 µM | EC50 [26] 5.92 µM
> 32 µM: IC50 [20]
inactive: EC50 (Beta-galactosidase [13]) > 31.5 µM | EC50 [15] > 32 µM | EC50 (Beta-galactosidase [16]) > 40 µM | EC50 (Mu-type opioid receptor) > 32 µM | IC50 [24] > 32 µM
> 150 µM (not active): EC50 (Streptokinase A)

O=C(O)c1ccc(Cl)c(S(=O)(=O)Nc2ccc(OCc3ccccc3)cc2)c1
active: IC50 [27] 4.05 µM

COc1ccc(-c2nnc(NC(=O)c3ccc(S(=O)(=O)N4COCC4(C)C)cc3)o2)cc1
active: EC50 [17] 2.09 µM | IC50 (cells) 6.25 µM | CC50 [9] 7.22 µM | CC50 [11] 8.49 µM | CC50 [12] 6.01 µM | EC50 [26] 7.83 µM
